These results are taken from the Deep4Chem optical property database.

“And” between values parts separate entries of the source, which are not always exact repeats. Equal values may be shown once.

This data set can be described thus: solvent given as SMILES.

`COc1cccc2oc(-c3cc4c(OC)cccc4oc3=O)cc12`: the absorption maximum is, setting by setting: (in CC#N) 383 nm; (in CCOC(C)=O) 385 nm; (in CS(C)=O) 389 nm; (in Cc1ccccc1) 389 nm; (in O) 384 nm. Under “in ClC(Cl)Cl”, `CN(C)c1[se]c(-c2ccccc2)nc1-c1ccccc1` had an absorption maximum of 326 nm. As for `c1cc2ccc3ccc4cc3c2cc1c1ccc2ccc3ccc(cc3c2c1)c1ccc2ccc3ccc4cc3c2c1`, the absorption maximum (in Cc1ccccc1) came to 375 nm.

Turning to `O=c1c2cccc3cccc(c32)c2nc3c4ccccc4c4ccccc4c3n12`, for the setting “in ClCCl”, the absorption maximum was 436 nm.

Take `CN(C)c1ccc(-c2ccc(-c3nc(C#N)c(C#N)n3C)cc2)cc1`: the absorption maximum is, setting by setting: (in C1CCCCC1) 333 nm; (in CC#N) 336 nm; (in CO) 336 nm; (in ClC(Cl)Cl) 348 nm. Compound `CCCCn1c2ccccc2c2ccc3c4cc(-c5ccc(OC)cc5)ccc4n(CCCC)c3c21` came in with an absorption maximum (in ClC(Cl)Cl) of 333 nm. As for `COc1cc2c3c(c4cc(OC)c(OC)c(OC)c4c2c(OC)c1OC)=[N+]1C(=C(c2c(C)cc(C)cc2C)c2cc4c5cc(OC)c(OC)c(OC)c5c5c(OC)c(OC)c(OC)cc5c4n2[B-]1(F)F)C=3`, the absorption maximum was 733 nm (in C1CCCCC1); 730 nm (in C1CCOC1); 718 nm (in CC#N); 740 nm (in Cc1ccccc1); 727 nm (in ClCCl). As to `CC1(CCCCC(=O)NCCCCCCO)C(/C=C/C=C/C=C2/N(CCCS(=O)(=O)[O-])c3ccc(S(=O)(=O)[O-])cc3C2(C)C)=[N+](CCCS(=O)(=O)[O-])c2ccc(S(=O)(=O)[O-])cc21` (configuration not stated), the absorption maximum (in O) is 651 nm. As to `CCC(CC)COC1=CC2=C3c4cc(OCC(CC)CC)c(-c5cccs5)n4[B-](F)(F)[n+]4nnn(c43)[B-](F)(F)[N+]2=C1c1cccs1`, the absorption maximum runs as follows: (in C1CCOC1) 784 nm; (in ClCCl) 795 nm. With `Fc1ccc(N(c2ccccc2)c2ccc3ccc4c(N(c5ccccc5)c5ccc(F)cc5)ccc5ccc2c3c54)cc1`, where the note is “in ClCCl”, the absorption maximum came out at 423 nm.

Take `Cc1ccc(-c2ccc(-c3ccc(C)cc3)c(/C(=C(/c3ccccc3)c3cc(-c4ccc(C)cc4)ccc3-c3ccc(C)cc3)c3ccccc3)c2)cc1`: the absorption maximum (in C1CCOC1) amounted to 282 nm.

As to `CI`, where the note is “in CCCCCC”, the absorption maximum was 259 nm. As for `C(S/C=C/c1ccc(/C=C/SC=C2CCCCCCC2)cc1)=C1CCCCCCC1`, the absorption maximum (in ClCCl) was 355 nm. With `CC1(C)c2ccccc2N(c2ccc(-c3nc4cc(C#N)c(C#N)cc4nc3-c3ccc(N4c5ccccc5C(C)(C)c5ccccc54)cc3)cc2)c2ccccc21`, under “in Cc1ccccc1”, the absorption maximum is reported as 454 nm. As for `CCOC(=O)CCCn1c(C(=O)OC)c(C)c2c(=O)n3c(cc21)C(CC)=C(C)C3=O`, the absorption maximum reads like this: (in C1CCCCC1) 396 nm; (in CO) 397 nm; (in CS(C)=O) 397 nm; (in ClC(Cl)Cl) 398 nm; (in c1ccccc1) 397 nm. As to `CC1=N/C(=C\c2cccc(N(C)C)c2)C(=O)N1C`, the absorption maximum (in C1CCOC1) is given as 354 nm; the absorption maximum (in CC#N) was 354 nm and 352 nm; the absorption maximum (in CCCCCC) is listed as 352 nm.

`CC1(C)c2ccccc2N(c2ccc3c(c2)C(c2ccccc2)(c2ccccc2)c2cc(N4c5ccccc5C(C)(C)c5ccccc54)ccc2S3(=O)=O)c2ccccc21` yielded an absorption maximum (in Cc1ccccc1) of 364 nm. For the compound `COc1ccc(-c2cc3c(ccc4sc(/C=C/c5cccs5)cc43)s2)cc1`, the absorption maximum (in ClCCl) was 376 nm. On to `CCN(CC)c1ccc2cc(-c3nc4ccccc4s3)c(=O)oc2c1`, for which the absorption maximum reads like this: (in C1CCCCC1) 425.4 nm; (in CC1CCCCC1) 425.4 nm; (in CC#N) 454 nm and 447 nm; (in CCC(C)CC) 425 nm; (in CCCCCC) 425 nm; (in CCO) 460 nm. The absorption maximum (in CCOC(C)=O) came to 439.4 nm. As to `c1ccc(C2=C(c3ccccn3)[Si](c3ccccc3)(c3ccccc3)c3ccccc32)cc1`, where the note is “in ClCCl”, the absorption maximum is 339 nm. `C(#Cc1c(C#Cc2cccs2)c(C#Cc2cccs2)c(C#Cc2cccs2)c(C#Cc2cccs2)c1C#Cc1cccs1)c1cccs1`: the absorption maximum (in ClCCl) came to 371 nm. `CC(C)Oc1ccc(C#Cc2ccc3ccc(=O)oc3c2)cc1` returned an absorption maximum (in CC#N) of 310 nm. `COc1ccc(C2=C(c3ccc(OC)cc3)C(c3ccccc3)=[N+]3C2=Nc2c(-c4ccc(OC)cc4)c(-c4ccc(OC)cc4)c(-c4ccccc4)n2[B-]3(F)F)cc1` came in with an absorption maximum (in Cc1ccccc1) of 654 nm.

`CC(C)(C(=O)c1ccc(N2c3ccccc3C(C)(C)c3ccccc32)cc1)C(=O)c1ccc(N2c3ccccc3C(C)(C)c3ccccc32)cc1` had an absorption maximum (in Cc1ccccc1) of 390 nm. `COc1ccc(-c2ccc(OC)cc2)cc1`: under “in C1CCCCC1”, the absorption maximum came out at 271.81 nm. In the case of `COc1ccc(-c2cc(C)nc(-c3ccc(-n4c5ccccc5c5ccccc54)cc3)n2)cc1`, the absorption maximum (in C1CCOC1) was found to be 339 nm, the absorption maximum (in CN(C)C=O) was determined as 340 nm, the absorption maximum (in Cc1ccccc1) stood at 341 nm and the absorption maximum (in ClC(Cl)Cl) turned out to be 342 nm.

For `CCCCN1c2ccccc2Sc2cc(/C=C\c3cc(=O)oc4cc(C)ccc34)ccc21`, the absorption maximum (in ClC(Cl)Cl) was determined as 424 nm. For the compound `CCOC(=O)/C(=C1\C(=O)C(O)=C1C=C1N(C)c2ccccc2C1(C)C)[N+](=O)[O-]`, the absorption maximum (in CCO) was determined as 475 nm. As for `CCN(CC)c1ccc2cc(/C=C/c3ccccc3)c(=O)oc2c1`, the absorption maximum (in CC#N) is recorded as 421 nm.

`CN(C)c1ccc(C2=[N+]3C(=Nc4c5ccccc5c(-c5ccc(N(C)C)cc5)n4[B-]3(F)F)c3ccccc32)cc1` came in with an absorption maximum (in ClCCl) of 794 nm. Regarding `O=C(c1ccc(-n2c3ccccc3c3cc(-n4c5ccccc5c5ccccc54)ccc32)cc1)c1ccc(-n2c3ccccc3c3cc(-n4c5ccccc5c5ccccc54)ccc32)cn1`, the absorption maximum (in Cc1ccccc1) worked out at 345 nm. In turn, `CN(C)c1ccc(C(=Cc2ccc(/C=C/c3ccc(C#N)cc3)cc2)c2ccc(N(C)C)cc2)cc1` showed an absorption maximum (in C1CCOC1) of 415 nm.

The compound `c1ccc(-c2nc(-c3ccccc3)nc(-c3ccc(-n4c5ccccc5c5c6c(ccc54)C4(c5ccccc5-c5ccccc54)c4ccccc4-6)cc3)n2)cc1` showed an absorption maximum (in Cc1ccccc1) of 374 nm. For `Oc1cc2ccc3cc(O)cc4ccc(c1)c2c34`, the absorption maximum (in CO) is 381 nm. `O=c1[nH]c(=O)n([C@@H]2O[C@H](CO)[C@@H](O)[C@H]2O)cc1-c1cc2ccccc2s1`: the absorption maximum is 322 nm (in C1COCCO1), 321 nm (in CC#N), 321 nm (in CO) and 318 nm (in O).

Consider `CCN1c2ccc(/C=N/Nc3ccccn3)cc2Sc2cc(-c3ccc(C#N)cc3)ccc21`, for which the absorption maximum was 383 nm (in C1CCOC1), 398 nm (in CS(C)=O), 386 nm (in Cc1ccccc1) and 388 nm (in ClCCl). The compound `CCN(CC)c1ccc2cc3c(cc2c1)C1(c2ccccc2Oc2ccccc21)c1cc2cc(N(CC)CC)ccc2cc1C3=O` yielded an absorption maximum (in CC#N) of 452 nm. On the same count and under the same terms, the value for `CN(C)c1ccc(-n2c(-c3ccncc3)nc3nccnc32)cc1` was 309 nm.

As for `Cc1nc2c(ccc3c2sc(/C=C/c2ccc(N(c4ccccc4)c4ccccc4)cc2)[n+]3C)s1`, the absorption maximum by setting is: (in CO) 522 nm; (in ClC(Cl)Cl) 561 nm.

Regarding `CC(C)(C)c1ccc(C(C)(C)C)c(N2C(=O)c3cccc4c(-c5ccc(-c6ccc(N(c7ccccc7)c7ccccc7)cc6)s5)ccc(c34)C2=O)c1`, the absorption maximum runs as follows: (in CO) 447 nm; (in CS(C)=O) 445 nm; (in Cc1ccccc1) 440 nm. As to `c1cnc(-c2c3ccccc3c(-c3ncccn3)c3ccccc23)nc1`, the absorption maximum runs as follows: (in CCO) 389 nm; (in ClCCl) 389 nm. For the compound `CCCCCCCCCCCC#CC#CCCCCCCCCCN1C(=O)c2ccc3c4ccc5c6c(ccc(c7ccc(c2c37)C1=O)c64)C(=O)N(CCCCCCCCCC#CC#CCCCCCCCCCCCC)C5=O`, the absorption maximum (in ClC(Cl)Cl) is recorded as 526 nm.

`Cc1cc(-c2cccc3ccccc23)cc(C)[o+]1` registered an absorption maximum (in ClCCl) of 438 nm. `CC(C)[Si](C#Cc1c2cc3ccccc3cc2c(C#C[Si](C(C)C)(C(C)C)C(C)C)c2nc3c4ccccc4c(=O)c4ccccc4c3nc12)(C(C)C)C(C)C`: the absorption maximum (in ClCCl) amounted to 615 nm. As to `CC1=N/C(=C\c2cccc(N(C)C)c2)C(=O)N1CCO`, the absorption maximum was 354 nm (in C1CCOC1), 352 nm (in CC#N) and 352 nm (in CCCCCC). The compound `C[Si](C)(C)C#Cc1cc(C#C[Si](C)(C)C)c2ccc3c(C(=O)c4ccccc4)cc(C#C[Si](C)(C)C)c4ccc1c2c43` returned an absorption maximum (in ClCCl) of 426 nm.

With `CCOC(=O)c1ccc(C2CC(c3cccc4ccccc34)=NN2c2ccc(OC)cc2)cc1` (configuration not stated), the absorption maximum (in ClCCl) was determined as 383 nm. `Cc1cc(C)c([B-]2(c3c(C)cc(C)cc3C)[O+]=P(c3ccccc3)(c3ccccc3)c3cc(-c4ccc(C(F)(F)F)cc4)sc3-c3sc(-c4ccc(C(F)(F)F)cc4)cc32)c(C)c1` yielded an absorption maximum (in C1CCOC1) of 405 nm. With `CCn1c2ccccc2c2cc(C#Cc3cc(C#Cc4ccc5c(c4)c4ccccc4n5CC)nc(SC)n3)ccc21`, the absorption maximum runs as follows: (in C1CCOC1) 396 nm; (in CCOC(C)=O) 392 nm; (in CN(C)C=O) 399 nm; (in Cc1ccccc1) 396 nm; (in ClCCl) 396 nm.
